Assay results: the Kinase Knowledgebase extract (Sharma et al. 2016)

target: ROCK2 (human) (UniProt O75116); assay: Inhibition of ROCK2 Kinase Activity
Sequence (O75116 whole entry, looked up): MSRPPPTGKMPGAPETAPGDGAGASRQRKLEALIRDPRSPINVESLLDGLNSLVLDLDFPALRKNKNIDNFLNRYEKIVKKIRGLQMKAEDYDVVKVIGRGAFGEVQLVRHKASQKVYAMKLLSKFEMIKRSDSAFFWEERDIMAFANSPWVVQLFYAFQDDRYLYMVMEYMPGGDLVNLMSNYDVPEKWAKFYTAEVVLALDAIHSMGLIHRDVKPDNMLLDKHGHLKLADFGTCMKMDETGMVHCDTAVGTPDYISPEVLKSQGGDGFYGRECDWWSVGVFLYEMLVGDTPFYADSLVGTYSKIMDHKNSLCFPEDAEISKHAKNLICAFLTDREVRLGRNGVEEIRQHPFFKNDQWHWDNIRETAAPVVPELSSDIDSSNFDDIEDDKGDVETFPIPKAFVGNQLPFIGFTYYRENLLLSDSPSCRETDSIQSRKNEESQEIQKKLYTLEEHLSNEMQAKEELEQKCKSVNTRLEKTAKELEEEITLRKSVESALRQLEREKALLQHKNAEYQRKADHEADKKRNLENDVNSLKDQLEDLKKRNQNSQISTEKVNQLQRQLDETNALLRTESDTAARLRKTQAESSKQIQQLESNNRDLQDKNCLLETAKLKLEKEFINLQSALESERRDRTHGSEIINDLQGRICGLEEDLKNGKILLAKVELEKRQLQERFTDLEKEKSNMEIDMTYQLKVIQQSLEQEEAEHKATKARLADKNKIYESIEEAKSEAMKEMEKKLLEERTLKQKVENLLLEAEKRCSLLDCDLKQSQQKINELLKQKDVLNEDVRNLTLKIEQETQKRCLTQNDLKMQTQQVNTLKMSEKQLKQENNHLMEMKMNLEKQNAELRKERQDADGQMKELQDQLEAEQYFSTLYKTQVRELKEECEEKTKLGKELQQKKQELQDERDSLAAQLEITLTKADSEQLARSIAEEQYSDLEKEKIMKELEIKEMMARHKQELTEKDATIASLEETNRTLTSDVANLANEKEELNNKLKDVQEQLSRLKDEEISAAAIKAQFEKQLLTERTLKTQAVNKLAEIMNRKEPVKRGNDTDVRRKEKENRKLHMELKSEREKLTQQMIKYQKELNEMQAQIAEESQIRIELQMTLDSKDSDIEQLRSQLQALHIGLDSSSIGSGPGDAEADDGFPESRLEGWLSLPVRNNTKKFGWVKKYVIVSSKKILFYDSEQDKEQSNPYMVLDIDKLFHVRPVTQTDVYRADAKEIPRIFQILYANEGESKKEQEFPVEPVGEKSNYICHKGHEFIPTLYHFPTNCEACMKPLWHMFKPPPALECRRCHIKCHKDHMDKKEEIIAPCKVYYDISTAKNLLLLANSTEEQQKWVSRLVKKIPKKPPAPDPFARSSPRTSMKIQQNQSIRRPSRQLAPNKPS

SMILES	IC50 [µM]
O=C(NCc1nc(-c2c[nH]c3ncccc23)n[nH]1)c1ccc(Br)cc1	> 5
CC1=NN(c2ccc(C(=O)NCc3nc(-c4c[nH]c5ncccc45)n[nH]3)cc2)C(=O)C1	> 5
O=C(NCc1nc(-c2ccncc2)n[nH]1)c1ccc(C(F)(F)F)cc1[N+](=O)[O-]	> 5
CCC(C(=O)NCc1nc(-c2ccncc2)n[nH]1)c1ccncc1 (stereo not drawn)	> 5
Cc1cccc(C(=O)NCc2nc(-c3ccncc3)n[nH]2)c1C	> 5
O=C(NCc1nc(-c2ccncc2)n[nH]1)c1cc2cc(Cl)ccc2o1	> 5
Cc1ccc(C(=O)NCc2nc(-c3c[nH]c4ncccc34)n[nH]2)cc1	> 5
CC(C)(C)OC(=O)NCC(=O)NCc1nc(-c2ccncc2)n[nH]1	> 5
CC(C)(C)OC(=O)NC(Cc1ccccn1)C(=O)NCc1nc(-c2ccncc2)n[nH]1 (stereo not drawn)	> 5
CC(NC(=O)c1ccc(O)cc1O)c1nc(-c2ccncc2)n[nH]1 (stereo not drawn)	≤ 5
O=C(NCc1nc(-c2ccncc2)n[nH]1)c1ccc2cc(O)ccc2c1	≤ 5
O=C(NCc1nc(-c2ccncc2)n[nH]1)c1ccc(F)cc1	> 5
CC(=O)NC(Cc1ccc(O)cc1)C(=O)NCc1nc(-c2ccncc2)n[nH]1 (stereo not drawn)	> 5
O=C(NCc1nc(-c2c[nH]c3ncccc23)n[nH]1)c1cccc(Oc2ccccc2)c1	> 5
O=C(NCc1nc(-c2ccncc2)n[nH]1)c1c(F)cccc1Cl	> 5
O=C(NCc1nc(-c2ccncc2)n[nH]1)c1c2ccccc2cc2ccccc12	> 5
O=C(NCc1nc(-c2ccncc2)n[nH]1)c1ccc(I)cc1	> 5
COc1ccc(O)c(C(=O)NCc2nc(-c3c[nH]c4ncccc34)n[nH]2)c1	> 5
COc1ccc(C(=O)NCc2nc(-c3ccncc3)n[nH]2)cc1C	> 5
O=C(NCc1nc(-c2ccncc2)n[nH]1)c1ccccc1O	≤ 5
O=C(CCc1cccc(C(F)(F)F)c1)NCc1nc(-c2ccncc2)n[nH]1	≤ 5
O=C(NCc1nc(-c2ccncc2)n[nH]1)c1ccccc1Cl	> 5

SMILES	IC50 [µM]
O=C(NCc1nc(-c2ccncc2)n[nH]1)c1cccc(O)c1O	> 5
c1ccc2c(NCc3nc(-c4ccncc4)n[nH]3)n[nH]c2c1	> 5
O=C(NCc1nc(-c2ccncc2)n[nH]1)c1ccsc1	≤ 5
Cc1cccc([N+](=O)[O-])c1C(=O)NCc1nc(-c2c[nH]c3ncccc23)n[nH]1	> 5
COc1cc(C(=O)NCc2nc(-c3ccncc3)n[nH]2)c([N+](=O)[O-])cc1OC	> 5
O=C(NCc1nc(-c2ccncc2)c[nH]1)c1ccc(O)cc1O	≤ 5
O=C(NCc1nc(-c2c[nH]c3ncccc23)n[nH]1)c1cccc(O)c1O	> 5
O=C(NCc1nc(-c2ccncc2)n[nH]1)c1ccc(OCc2ccccc2)cc1	> 5
COc1ccc(Br)c(C(=O)NCc2nc(-c3c[nH]c4ncccc34)n[nH]2)c1	> 5
O=C(NCc1nc(-c2ccncc2)n[nH]1)c1cccc(I)c1	> 5
Oc1ccc(C(O)CCc2nc(-c3ccncc3)n[nH]2)cc1 (stereo not drawn)	> 5
CN(Cc1nc(-c2ccncc2)n[nH]1)C(=O)c1ccc(O)cc1O	> 5
O=C(CCc1ccccc1O)NCc1nc(-c2c[nH]c3ncccc23)n[nH]1	> 5
CC(NC(=O)OC(C)(C)C)C(=O)NCc1nc(-c2ccncc2)n[nH]1 (stereo not drawn)	> 5
COc1ccc(C(=O)NCc2nc(-c3ccncc3)n[nH]2)c(O)c1	≤ 5
COc1ccc(OC)c(C(=O)NCc2nc(-c3ccncc3)n[nH]2)c1	> 5
O=C(Cc1ccc(C(F)(F)F)cc1)NCc1nc(-c2ccncc2)n[nH]1	> 5
O=C(NCc1nc(-c2ccncc2)n[nH]1)c1cc(O)c(O)c(O)c1	> 5
O=C(O)c1ccc(C(=O)NCc2nc(-c3ccncc3)n[nH]2)cc1	≤ 5
O=C(NCc1nc(-c2c[nH]c3ncccc23)n[nH]1)C1=CCCC1	> 5
Cc1cccc(C(=O)NCc2nc(-c3ccncc3)n[nH]2)c1O	≤ 5
COc1cc(Cl)ccc1C(=O)NCc1nc(-c2c[nH]c3ncccc23)n[nH]1	> 5

SMILES	IC50 [µM]
COc1ccc(C(=O)NCc2nc(-c3c[nH]c4ncccc34)n[nH]2)cc1O	> 5
O=C(NCc1nc(-c2c[nH]c3ncccc23)n[nH]1)c1cc(F)c(F)c(O)c1F	> 5
O=C(NCc1nc(-c2c[nH]c3ncccc23)n[nH]1)c1ccccc1[N+](=O)[O-]	> 5
CN(C=O)c1ccc(C(=O)NCc2nc(-c3c[nH]c4ncccc34)n[nH]2)cc1	> 5
O=C(C=Cc1ccccc1Cl)NCc1nc(-c2c[nH]c3ncccc23)n[nH]1	> 5
O=C(CC1Cc2ccccc2C1)NCc1nc(-c2ccncc2)n[nH]1	> 5
O=C(NCc1nc(-c2ccncc2)n[nH]1)c1ccncc1	> 5
O=C(NCc1nc(-c2c[nH]c3ncccc23)n[nH]1)c1cc2ccccc2cc1O	> 5
COc1cc(OC)c(C(=O)NCc2nc(-c3c[nH]c4ncccc34)n[nH]2)cc1OC	> 5
CC(C)Cc1ccc(C(C)C(=O)NCc2nc(-c3ccncc3)n[nH]2)cc1 (stereo not drawn)	> 5
O=C(NCc1nc(-c2ccncc2)co1)c1ccc(O)cc1O	≤ 5
Cc1cc(C)cc(C(=O)NCc2nc(-c3ccncc3)n[nH]2)c1	> 5
CC(C)Cc1ccc(C(C)C(=O)NCc2nc(-c3c[nH]c4ncccc34)n[nH]2)cc1 (stereo not drawn)	> 5
COc1ccc2cc(C(C)C(=O)NCc3nc(-c4c[nH]c5ncccc45)n[nH]3)ccc2c1 (stereo not drawn)	> 5
O=C(NCc1nc(-c2ccncc2)n[nH]1)C(F)(F)F	> 5
O=C(NCc1nc(-c2c[nH]c3ncccc23)n[nH]1)c1ccncc1	> 5
O=C(NCc1nc(-c2ccncc2)n[nH]1)c1csc2ccccc12	> 5
CC(C)c1cc(C(=O)NCc2nc(-c3c[nH]c4ncccc34)n[nH]2)c(O)c(C(C)C)c1	> 5
CS(=O)(=O)Nc1ccccc1C(=O)NCc1nc(-c2ccncc2)n[nH]1	> 5
O=C(NCc1nc(-c2c[nH]c3ncccc23)n[nH]1)c1cc(F)ccc1[N+](=O)[O-]	> 5
CCCc1ccc(C(=O)NCc2nc(-c3ccncc3)n[nH]2)cc1	> 5
CC(=O)c1ccccc1C(=O)NCc1nc(-c2ccncc2)n[nH]1	> 5

SMILES	IC50 [µM]
N#CCC(=O)NCc1nc(-c2c[nH]c3ncccc23)n[nH]1	> 5
CC(C)Oc1ccc(C(=O)NCc2nc(-c3c[nH]c4ncccc34)n[nH]2)cc1	> 5
O=C(NCc1c[nH]c(-c2ccncc2)n1)c1cccs1	> 5
CC(C)(C)OC(=O)N1Cc2ccccc2CC1C(=O)NCc1nc(-c2c[nH]c3ncccc23)n[nH]1 (stereo not drawn)	> 5
O=C(NCc1nc(-c2c[nH]c3ncccc23)n[nH]1)c1cncc(Br)c1	> 5
O=C(NCc1nc(-c2ccncc2)n[nH]1)c1ccc([N+](=O)[O-])c(O)c1	≤ 5
O=C(NCc1nc(-c2c[nH]c3ncccc23)n[nH]1)c1ccc(I)cc1	> 5
O=C(Cc1ccccc1O)NCc1nc(-c2ccncc2)n[nH]1	> 5
CCCCOc1ccc(C(=O)NCc2nc(-c3c[nH]c4ncccc34)n[nH]2)cc1	> 5
O=C(NCc1nc(-c2ccncc2)n[nH]1)c1ccccc1C(=O)c1ccc(O)cc1	> 5
O=C(NCc1nc(-c2ccncc2)n[nH]1)c1ccc(Cl)cc1[N+](=O)[O-]	> 5
O=C(NCc1nc(-c2ccncc2)n[nH]1)c1cncc(Br)c1	> 5
O=C(Cc1ccc(O)c(Cl)c1)NCc1nc(-c2c[nH]c3ncccc23)n[nH]1	> 5
O=C(NCc1nc(-c2ccncc2)n[nH]1)C1=CCCC1	> 5
O=C(NCc1nc(-c2c[nH]c3ncccc23)n[nH]1)c1ccc2cc(O)ccc2c1	> 5
Cc1ccc(C(=O)NCc2nc(-c3c[nH]c4ncccc34)n[nH]2)cc1Br	> 5
CCN(CC)c1ccc(C(=O)NCc2nc(-c3c[nH]c4ncccc34)n[nH]2)cc1	> 5
O=C(NCc1nc(-c2c[nH]c3ncccc23)n[nH]1)c1cnc[nH]1	> 5
CC(C)c1cc(C(=O)NCc2nc(-c3ccncc3)n[nH]2)c(O)c(C(C)C)c1	> 5
O=C(NCc1nc(-c2c[nH]c3ncccc23)n[nH]1)c1cc(Cl)ccc1[N+](=O)[O-]	> 5
COc1ccccc1C=CC(=O)NCc1nc(-c2c[nH]c3ncccc23)n[nH]1	> 5
CC(C)(C)OC(=O)NC(Cc1ccc(O)cc1)C(=O)NCc1nc(-c2c[nH]c3ncccc23)n[nH]1 (stereo not drawn)	> 5

SMILES	IC50 [µM]
O=C(NCc1nc(-c2ccncc2)n[nH]1)C1CCc2ccccc2C1 (stereo not drawn)	> 5
O=C(NCc1nc(-c2c[nH]c3ncccc23)cs1)c1cccs1	≤ 5
O=C(NCc1nc(-c2ccncc2)n[nH]1)c1ccccc1	> 5
O=C(NCc1nc(-c2c[nH]c3ncccc23)n[nH]1)c1ccc(Cl)cc1Cl	> 5
O=C(NCc1nc(-c2ccncc2)n[nH]1)c1cccnc1	> 5
COc1cc(C(=O)NCc2nc(-c3c[nH]c4ncccc34)n[nH]2)c([N+](=O)[O-])cc1OC	> 5
Cc1cccc(C(=O)NCc2nc(-c3c[nH]c4ncccc34)n[nH]2)c1O	> 5
Cc1ccc(C(=O)CCC(=O)NCc2nc(-c3ccncc3)n[nH]2)cc1	> 5
O=C(NCc1nc(-c2c[nH]c3ncccc23)n[nH]1)c1ccccc1	> 5
O=C(NCc1nc(-c2c[nH]c3ncccc23)n[nH]1)c1cccc([N+](=O)[O-])c1	> 5
COc1ccc(OC)c(C(=O)NCc2nc(-c3c[nH]c4ncccc34)n[nH]2)c1	> 5
CC(C)(C)OC(=O)NC1CCN(C(=O)Cc2nc(-c3ccncc3)n[nH]2)C1 (stereo not drawn)	> 5
O=C(CC1Cc2ccccc2C1)NCc1nc(-c2c[nH]c3ncccc23)n[nH]1	> 5
CC(=O)Oc1ccccc1C(=O)NCc1nc(-c2ccncc2)n[nH]1	≤ 5
CCC(C)C(NC(=O)OC(C)(C)C)C(=O)NCc1nc(-c2ccncc2)n[nH]1 (stereo not drawn)	> 5
COc1ccc(C(=O)NCc2nc(-c3c[nH]c4ncccc34)n[nH]2)c(O)c1	> 5
O=Cc1ccccc1OCC(=O)NCc1nc(-c2ccncc2)n[nH]1	> 5
O=C(CCc1cccc(Br)c1)NCc1nc(-c2ccncc2)n[nH]1	> 5
Cc1nc(Br)sc1C(=O)NCc1nc(-c2ccncc2)n[nH]1	> 5
Cc1nc(Br)sc1C(=O)NCc1nc(-c2c[nH]c3ncccc23)n[nH]1	> 5
